From patent US20090208445A1, “Compositions Comprising Eucalyptol And/Or Ocimene And/Or Farnesol For Use As Bumblebee Pheromones” (QUEEN MARY & WESTFIELD COLLEGE, priority 2005, published 2009)

How the values were obtained:
Bombus terrestris [1] = experiment: Behavioural effect of individual compounds on forager recruitment (foragers leaving the nest in search for food); type: in vivo; conditions: 10 μl of 200 mg l-1 in acetone on filter paper in nest box lid every 5 min for 30 min vs preceding 30 min; 7 repeats, Wilcoxon test
Procedure: All experiments were performed with lab-reared colonies of Bombus terrestris with 30-50 workers. A total of ten colonies were used. Each nest was contained in a wooden box (26 cm·14 cm·10 cm), which was connected to a foraging arena (40 cm·60 cm·30 cm) with a Plexiglas tube of 30 cm length. Nest box and foraging arena had transparent Plexiglas covers, so that the behaviour of the bees could be observed. The arena contained a feeder at certain times of the experiment (see below).
To this end, 10 μl of solution of the individual compounds at 200 mg 1^−1 acetone, were dispensed onto a filter paper placed in a glass tube in the lid of the nest box. This was repeated every 5 minutes for half an hour, and numbers of foragers entering the flight arena in search for food were counted in 5 min intervals during the experimental half hour and in the preceding 30 min (control period). This experiment was repeated 7 times which each individual compound. In addition, 7 control runs were performed with acetone, to exclude the possibility that the solvent itself provoked a behavioural response. Tests were done in random sequence with three bumblebee colonies, with at least 4 h between tests on a single colony. None of the compounds were tested twice on the same day with the same colony.

Bombus terrestris [2] = experiment: Mobilisation of individually marked foragers of a colony by eucalyptol; type: in vivo
Procedure: To this end, all foragers were marked that arrived at an ad libitum sucrose feeder in a flight arena connected to a large nest (with >80 workers), over a period of two days. Bees were given individual number plates (Opalith). Then the colony was starved for 1 day, and on the next day, a sucrose feeder was inserted into the arena for one hour. After 30 min, the colony was exposed to eucalyptol as described above. Bees were caught immediately upon arrival, so that they could not provide feedback to the colony.

| SMILES | Effect on numbers of foragers leaving the nest in search for food (Bombus terrestris [1]) | Time for the remaining foragers to arrive after exposure of the colony (Bombus terrestris [2]; 13 remaining of 17 active foragers) | Forager force of the colony activated (Bombus terrestris [2]; colony with 17 active marked foragers, starved 1 day, eucalyptol inserted after 30 min) | Number of foragers arriving at the feeder after exposure of the colony (Bombus terrestris [2]; of 17 active foragers, 4 had arrived in the 30 min before exposure) |
| --- | --- | --- | --- | --- |
| CC(C)=CCCC(C)=CCCC(C)=CCO [E,E-farnesol, 3,7,11-trimethyl-2,6,10-dodecatrien-1-ol] | non-significant rise in activity | – | – | – |
| CC12CCC(CC1)C(C)(C)O2 [Eucalyptol, 1,3,3-Trimethyl-2-oxabicyclo[2.2.2.]octane] | strongest response | ≤ 15 min | entire forager force of the colony was activated | 13 foragers |
